# From patent publication US12414559B2, “Mixtures and compositions comprising 5-fluoro-4-imino-3-methyl-1-tosyl-3,4-dihydropyrimidin-2-one, and methods of use thereof” (Adama Makhteshim Ltd., priority 2018, dated 2025)
# Experiment: Chemical stability on storage: concentration / degradation of compound of Formula I in the composition
# Assay type: physicochemical
# Conditions: after 8 weeks of storage at 40° C.
# Text: As used herein, the term “stable” when used in connection with chemical stability, e.g, chemically stable, means that the composition meets the chemical stability standards set forth by the Food and Agriculture Organization of the United Nations (FAO) in the Manual on Development and Use of FAO and WHO Specification for Pesticides (First Edition—Third Revision) (the “FAO/WHO Manual”) (available at http://www.fao.gov/agriculture/crops/thematic-sitemap/theme/pests/jmps/manual/en/), the entire content of which is hereby incorporate by reference into the subject application. […] The amount of degradation permitted before the degradation is considered to be significant depends on the concentration of the active ingredients in the composition.
# The physical and chemical stability of composition of Example were tested under various conditions including CIPAC conditions.
compound,measurement,setting,value
"Cc1ccc(S(=O)(=O)n2cc(F)c(=N)n(C)c2=O)cc1 [compound of Formula I, 5-fluoro-4-imino-3-methyl-1-tosyl-3,4-dihydropyrimidin-2(1H)-one]",degradation of the compound of Formula I,with Attagel 50 (0.5% by weight) and Bentone SD-1 (0.5% by weight),4%
same,degradation of the compound of Formula I,without Attagel 50 and Bentone SD-1,7-8%
